Converted amounts (≈) assume the structure as drawn.
How the values were obtained:
Assay type in all cases: cell-based
[1] = test system: Fusarium falciforme FS1 (ATCC MYA-3636); experiment: Fungal MIC Protocol, Fusarium falciforme; details: 100% growth inhibition at 48 hours; for MIC: Fusarium falciforme, read-out: MIC Fusarium falciforme 3636
Procedure, shortened: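 MIC against Fusarium falciforme was determined by broth microdilution in RPMI/MOPS medium containing glucose. Compounds started at 200 ug/mL and were serially diluted ten times, then combined with harvested spores adjusted to an OD530 of 0.005. Controls held compound without cells and spores without compound. Plates were bagged and incubated at 35° C. for 48 hours.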

[2] = test system: Aspergillus flavus AFL1 (ATCC MYA-3631); experiment: Fungal MIC Protocol, Aspergillus flavus; details: 100% growth inhibition at 48 hours; for MIC: Aspergillus flavus, read-out: MIC Aspergillus flavus 3631
Procedure, shortened: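 The MIC against Aspergillus flavus was measured by broth microdilution in RPMI/MOPS medium at pH 7.0. Compounds were diluted to 200 ug/mL from DMSO stocks, then ten serial dilutions were tested in duplicate in round bottom 96-well plates. Spores adjusted to a final OD530 of 0.002 were added, with no-cell and no-compound control wells, and plates were incubated 48 hours at 35° C.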

[3] = test system: Fusarium solani (ATCC 58877); experiment: Fungal MIC Protocol, Fusarium solani; details: 100% growth inhibition at 48 hours; for MIC: Fusarium solani, ATCC58877, read-out: MIC Fusarium solani 58877
Procedure, shortened: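 Broth microdilution MIC test against Fusarium solani in RPMI/MOPS medium at pH 7.0. Compounds from DMSO stock were diluted to 200 ug/mL, then serially diluted ten times and plated in duplicate at 50 μl per well. 50 ul of spore suspension at OD530 0.005 was added. Controls had compound without cells and spores without compound. Plates were mixed gently, bagged, and incubated at 35° C. for 48 hours.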

[4] = test system: Mucor circinelloides 1463(62) (ATCC 26759); experiment: Fungal MIC Protocol, Mucor circinelloides (MIC-50); details: 50% growth inhibition at 48 hours; for MIC50: Mucor circinelloides, ATCC26759, read-out: MIC-50 Mucorales circinelloides 26579
Procedure, shortened: (§1)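 Harvested spores, adjusted by OD530 to about 2×10^4 cfu/mL in RPMI/MOPS pH 7.0, are mixed with ten duplicate serial dilutions of compound. Incubation runs 48 h at 35° C before visual scoring of the lowest concentration inhibiting growth >50%.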

Candida albicans GDH2346 = experiment: Candida Minimal Inhibitory Concentration (MIC); details: 50% growth inhibition at 48 hours; for MIC50: Candida albicans, GDH2346, read-out: MIC-50 Candida albicans GDH2346
Procedure, shortened: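 Twofold serial dilutions from 200 μg/mL in RPMI 1640/MOPS with glucose, pH 7.0, tested in duplicate against yeast from an OD600 1.0 suspension diluted 1:1000. Incubated at 35° C; OD600 read at 24 and 48 h.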

[5] = test system: Mucor ramosissimus 057718 (ATCC 90286); experiment: Fungal MIC Protocol, Mucor ramosissimus (MIC-50); details: 50% growth inhibition at 48 hours; for MIC50: Mucor ramosissimus, ATCC90286, read-out: MIC-50 Mucorales ramosissimus 90286
Procedure, shortened: as §1

[6] = test system: Aspergillus fumigatus T33439 (ATCC MYA-3626); experiment: Fungal MIC Protocol, Aspergillus fumigatus; details: 100% growth inhibition at 48 hours; for MIC: Aspergillus fumigatus, read-out: MIC Aspergillus fumigatus 3626
Procedure, shortened: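 This broth microdilution MIC test used RPMI/MOPS medium at pH 7.0 with glucose. Compounds were diluted from DMSO stock to 200 ug/mL and serially diluted ten times in 96-well round bottom plates. Equal volumes of compound and Aspergillus spore suspension at OD530 0.002 were combined, with controls of compound without cells and spores without compound. Plates were bagged and incubated at 35° C. for 48 hours.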

Row | SMILES | MIC [1] [µg/mL] | MIC [2] [µg/mL] | MIC [3] [µg/mL] | MIC50 [4] [µg/mL] | MIC50 (Candida albicans GDH2346) [µg/mL] | MIC50 [5] [µg/mL] | MIC [6] [µg/mL] | MIC Fusarium falciforme 3636 [1] [µg·mL] | MIC Aspergillus flavus 3631 [2] [µg·mL] | MIC Fusarium solani 58877 [3] [µg·mL] | MIC-50 Mucorales circinelloides 26579 [4] [µg/mL] | MIC-50 Candida albicans GDH2346 (Candida albicans GDH2346) [µg/mL] | MIC-50 Mucorales ramosissimus 90286 [5] [µg/mL] | MIC Aspergillus fumigatus 3626 [6] [µg·mL]
1 | Cc1cc(C2=CCN(C(=N)N)CC2)ccc1-n1cc(-c2ccc(C3=CCN(C(=N)N)CC3)cc2)nn1 [Example 34, 4-(4-(1-(4-(1-Carbamimidoyl-1,2,3,6-tetrahydropyridin-4-yl)-2-methylphenyl)-1H-1,2,3-triazol-4-yl)phenyl)-5,6-dihydropyridine-1(2-H)-carboximidamide] | < 0.1 | 0.2 (≈ 0.415 µM) | 0.39 (≈ 0.81 µM) | 0.39 (≈ 0.81 µM) | 0.16 (≈ 0.332 µM) | 25 (≈ 51.9 µM) | 0.2 (≈ 0.415 µM) |  |  |  |  |  |  | 
2 | Cc1cc(-n2cc(-c3ccc(C4=CCN(C(=N)N)CC4)cc3)nn2)ccc1C1=CCN(C(=N)N)CC1 [Example 35, 4-(4-(1-(4-(1-Carbamimidoyl-1,2,3,6-tetrahydropyridin-4-yl)-3-methylphenyl)-1H-1,2,3-triazol-4-yl)phenyl)-5,6-dihydropyridine-1(2H)-carboximidamide] | < 0.1 | 0.39 (≈ 0.81 µM) | 1.56 (≈ 3.24 µM) | 0.39 (≈ 0.81 µM) | 0.39 (≈ 0.81 µM) | 25 (≈ 51.9 µM) | 1.56 (≈ 3.24 µM) |  |  |  |  |  |  | 
3 | Cc1cc(C2=CCN(C(=N)N)CC2)ccc1-c1cn(-c2ccc(C3=CCN(C(=N)N)CC3)cc2)nn1 [Example 36, 4-(4-(4-(4-(1-Carbamimidoyl-1,2,3,6-tetrahydropyridin-4-yl)-2-methylphenyl)-1H-1,2,3-triazol-1-yl)phenyl)-5,6-dihydropyridine-1(2H)-carboximidamide] | 0.1 (≈ 0.208 µM) | 0.2 (≈ 0.415 µM) | 0.2 (≈ 0.415 µM) | 0.78 (≈ 1.62 µM) | 0.39 (≈ 0.81 µM) | 3.13 (≈ 6.5 µM) | 0.2 (≈ 0.415 µM) |  |  |  |  |  |  | 
4 | Cc1cc(-c2cn(-c3ccc(C4=CCN(C(=N)N)CC4)cc3)nn2)ccc1C1=CCN(C(=N)N)CC1 [Example 37, 4-(4-(4-(4-(1-Carbamimidoyl-1,2,3,6-tetrahydropyridin-4-yl)-3-methylphenyl)-1H-1,2,3-triazol-1-yl)phenyl)-5,6-dihydropyridine-1(2H)-carboximidamide] | 0.39 (≈ 0.81 µM) | 0.2 (≈ 0.415 µM) | 0.39 (≈ 0.81 µM) | 0.39 (≈ 0.81 µM) | 0.78 (≈ 1.62 µM) | 6.25 (≈ 13 µM) | 0.39 (≈ 0.81 µM) |  |  |  |  |  |  | 
5 | Cn1nc(-c2ccc(C3=CCN(C(=N)N)CC3)cc2)nc1-c1ccc(C2=CCN(C(=N)N)CC2)cc1 [Example 38, 4,4′-(4,4′-(1-Methyl-1H-1,2,4-triazole-3,5-diyl)bis(4,1-phenylene)) bis(5,6-dihydropyridine-1(2H)-carboximidamide)] |  |  |  |  |  |  |  | 0.2 | 0.16 | <0.1 | 3.13 (≈ 6.5 µM) | 6.25 (≈ 13 µM) | 0.78 (≈ 1.62 µM) | 0.2
6 | Cn1c(-c2ccc(C3CCN(C(=N)N)CC3)cc2)nnc1-c1ccc(C2CCN(C(=N)N)CC2)cc1 [Example 39, 4,4′-(4,4′-(4-Methyl-4H-1,2,4-triazole-3,5-diyl)bis(4,1-phenylene))dipiperidine-1-carboximidamide] | 0.78 (≈ 1.61 µM) | 1.56 (≈ 3.21 µM) | 0.78 (≈ 1.61 µM) | > 100 | 0.78 (≈ 1.61 µM) | > 100 | 1.56 (≈ 3.21 µM) |  |  |  |  |  |  | 
7 | N=C(N)N1CC=C(c2ccc(-c3nnc(-c4ccc(C5=CCN(C(=N)N)CC5)cc4)o3)cc2)CC1 [Example 41, 4-(4-{5-[4-(1-Carbamimidoyl-1,2,3,6-tetrahydropyridin-4-yl)phenyl]-1,3,4-oxadiazol-2-yl}phenyl)-1,2,3,6-tetrahydropyridine-1-carboximidamide] | 0.39 (≈ 0.832 µM) | 3.13 (≈ 6.68 µM) | 6.25 (≈ 13.3 µM) | 100 (≈ 213 µM) | 0.39 (≈ 0.832 µM) | 100 (≈ 213 µM) | 3.13 (≈ 6.68 µM) |  |  |  |  |  |  | 
